Results on two compounds are retold here after patent US10827695B2, “Process for in vitro flowering in Crocus sativus L” (Council of Scientific & Industrial Research, priority 2015, dated 2020).

The subject of this experiment is saffron crocus (Crocus sativus L.) corm explants. Put plainly: in-vitro induction of flowering / proliferation of floral primordia in corm explants on MS medium with PGR. In kind it is cell-based. As for the experimental part:
Accordingly, the incubation is carried out at a temperature in the range of 9° C. to 30° C. preferably at a temperature in the range of 9° C. to 21° C., with RH (relative humidity) in the range of 50 to 90%, and photoperiod of about 16 hours provided by 1/2/4 cool fluorescent tubes (Philips, 40 W), giving about 11.7 ? mol m−^2 s^−1 PPF (Photosynthetic Photon Flux) i.e. ˜866 lux (illuminance) each followed by 8-h dark period. The cultures are maintained for 4-5 weeks in the medium at above incubation conditions during which 80% of the culture remain sterile and show sprouting. They are then transferred to fresh MS medium of same composition and incubated under sterile conditions for about 1 to 2 weeks till the sprouted buds are about 8 cm long. The sprouted buds are slit vertically and incubated in MS medium of same composition for another 2 to 3 weeks under the same conditions. This helps the bud to open and grow further (FIG. 1 & FIG. 2).
Corms weighing ˜10 gm were used for the experiments. Explants were prepared by trimming the sides and base of the corms and making small cubes of about 1 cm^3 containing the dormant or slightly sprouted apical buds on 22 Oct. 2014.
These explants were surface sterilized by washing them with neutral Detergent Labolene for 10 min followed by washing with 15% Savlon for 10 minutes. Further, these explants were treated with 1% Bavistin (BASF) for 30 minutes followed by 5 min followed by 0.08% mercuric chloride treatment in a sterile work station (Laminar Air Flow cabinet). After each treatment the explants were washed with sterile distilled water.
Murashige and Skoog Medium supplemented with 6 benzyl amino purine (BAP) (1.0 mg/l) was used for culture. The media made in distilled water was further constituted with 3% sucrose and 0.6% agar. The final pH was adjusted at 5.7. The media was autoclaved at 121° C. at 15 lbs pressure for 20 minutes.
The cultures were maintained for 5 weeks in the medium at 25±2° C., light intensity 16-h light (at 11.7 ? mol m^−2s^−1) followed by 8-h dark period.
The sterile sprouted buds of 5-7 cms length were transferred to fresh medium of same composition after making a vertical slit on the sprouting bud. It helps the bud to open and grow further.
They were again incubated for 3 weeks under the same incubation conditions.
Corms weighing ˜10 gm were used for the experiments. Explants were prepared by trimming the sides and base of the corms and making small cubes of about 1 cm^3 containing the dormant or slightly sprouted apical buds on 22 Oct. 2014. One part of such samples was used for this set-up, while other was reserved for set ^-up of Example 3.
The explants were surface sterilized by passing it through Detergent Labolene for 10 min followed by washing with 15% Savlon for 10 minutes. Further, the cubed explants were treated with 1% Bavistin (BASF) for 30 minutes followed by 5 min 0.08% mercuric chloride treatment in a sterile work station (Laminar Air Flow cabinet). After each treatment the explants were washed with sterile distilled water.
The cultures were maintained for 5 weeks in the medium at 25±2° C. Light intensity 16-h light (at 11.7 ? mol m^−2 s^−1) followed by 8-h dark period.
The sterile sprouted buds of 5-7 cm length were transferred to fresh medium of same composition after making a vertical slit on the sprouting bud.
The explants were surface sterilized by treating them with neutral detergent Labolene for 15 min followed by washing with 20% Savlon for 5 minutes. […]

On to `c1ccc(CNc2ncnc3nc[nH]c23)cc1` [BAP, 6-benzylaminopurine], for which, under “Example 1, MS medium with 1.0 mg/l, explants prepared 22 Oct. 2014, observed by Nov. 5, 2014 (natural flowering season)”, the flowering in cultures result is “Flowering was observed”. Where the note is “Example 2, MS medium with 1.0 mg/l, until May 2015”, the “flowering in cultures maintained on fresh medium” value is listed as “flowering was observed”. Where the note is “Example 2, MS medium with 1.0 mg/l, until late December 2014 (beyond natural flowering period)”, the “initiation of flowering in culture” value is on record as “Initiation of flowering was observed”.

Consider `O=C(Nc1ccccc1)Nc1cnns1` [TDZ, thidiazuron], for which the flowering in cultures result (Example 3, MS medium with 0.01, 0.05 and 0.1 mg/l, by last week of December 2014) is reported as “Flowering was observed”. Besides, the “flowering in cultures maintained on fresh medium” value (Example 3, MS medium with 0.01, 0.05 and 0.1 mg/l, till May 2015) was “flowering was observed”.
